System: Canis familiaris
Assay: Inhibition of gastric acid secretion in dogs stimulated by gastrin tetrapeptide when administered perorally
Assay type: functional
Conditions: Canis lupus familiaris, Stomach, po

Compound	ED50 [µmol/kg]
[2H]C([2H])([2H])c1cc(C)nc(N(CCN(C(C)C)C(C)C)C(=O)N(C)C)c1	7.26
Cc1cc(CO)nc(N(CCN(C(C)C)C(C)C)C(=O)N(C)C)c1	29.4
Cc1cc(CO)cc(N(CCN(C(C)C)C(C)C)C(=O)N(C)C)n1	23.3
Cc1cc(C)nc(N(CCN(C(C)C)C(C)C)C(=O)N(C)C)c1	15.3
CC(C)N(CCN(C(=O)N(C)C)c1cc(C(F)(F)F)cc(C(F)(F)F)n1)C(C)C	43.9
CN/C(=N\CCSCc1nc[nH]c1C)NC#N [CIMETIDINE]	14.3

Reference: ChEMBL document CHEMBL1122400, “A deuterium isotope effect on the inhibition of gastric secretion by N,N-dimethyl-N'-[2-(diisopropylamino)ethyl]-N'-(4,6-dimethyl-2-pyridyl)urea. Synthesis of metabolites” (1983)
